Laboratory results reported in ChEMBL document CHEMBL1909046, “DrugMatrix in vitro pharmacology data”.

Biological target: T1, Caspase-1 (Homo sapiens, UniProt P29466);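 note: Caspase-1 enzyme inhibition assay with a peptide substrate; in other assays of this panel Not Active means under 50% inhibition at 10 µM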
T1 sequence (P29466 whole entry): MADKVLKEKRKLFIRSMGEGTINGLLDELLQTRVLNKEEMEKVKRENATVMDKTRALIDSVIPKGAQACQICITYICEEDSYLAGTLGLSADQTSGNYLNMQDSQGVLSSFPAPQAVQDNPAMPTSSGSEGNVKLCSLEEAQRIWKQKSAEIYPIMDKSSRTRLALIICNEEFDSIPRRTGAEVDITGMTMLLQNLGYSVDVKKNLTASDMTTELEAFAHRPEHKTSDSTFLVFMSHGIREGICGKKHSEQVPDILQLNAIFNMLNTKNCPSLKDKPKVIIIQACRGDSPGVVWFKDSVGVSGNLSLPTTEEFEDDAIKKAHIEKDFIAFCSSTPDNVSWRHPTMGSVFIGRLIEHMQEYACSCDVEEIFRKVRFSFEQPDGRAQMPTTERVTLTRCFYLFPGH
Test: not given
Set-up: species or system Escherichia coli
Settings: not given

SMILES	IC50
CC1=Nc2ccc(Cl)cc2S(=O)(=O)N1 [DIAZOXIDE]	Not Active
CC(C)(Oc1ccc(CCNC(=O)c2ccc(Cl)cc2)cc1)C(=O)O [BEZAFIBRATE]	Not Active
CC(C)n1c(/C=C/C(O)CC(O)CC(=O)O)c(-c2ccc(F)cc2)c2ccccc21 (stereo not given) [FLUVASTATIN]	Not Active

Biological target: T2, D(4) dopamine receptor (Homo sapiens, UniProt P21917)
T2 sequence (P21917 whole entry): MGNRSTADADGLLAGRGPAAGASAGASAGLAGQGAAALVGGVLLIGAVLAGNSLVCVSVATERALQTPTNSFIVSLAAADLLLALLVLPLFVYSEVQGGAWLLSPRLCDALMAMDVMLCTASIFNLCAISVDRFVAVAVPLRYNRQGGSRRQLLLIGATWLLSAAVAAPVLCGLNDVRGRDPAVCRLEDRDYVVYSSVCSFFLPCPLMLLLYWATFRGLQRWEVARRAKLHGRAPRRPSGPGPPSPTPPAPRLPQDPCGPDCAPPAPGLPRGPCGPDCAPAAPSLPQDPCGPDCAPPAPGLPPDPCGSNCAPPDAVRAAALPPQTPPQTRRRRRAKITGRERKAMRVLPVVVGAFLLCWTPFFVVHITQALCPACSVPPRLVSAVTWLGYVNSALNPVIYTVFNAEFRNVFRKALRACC
Test: DRUGMATRIX: Dopamine D4.2 radioligand binding (ligand: [3H] Spiperone)
Type: cell membranes, CHO-K1, Membrane
Settings: cho-k1; Not Active = under 50% inhibition at 10 µM

SMILES	IC50
CC1=Nc2ccc(Cl)cc2S(=O)(=O)N1 [DIAZOXIDE]	Not Active
CC(C)(Oc1ccc(CCNC(=O)c2ccc(Cl)cc2)cc1)C(=O)O [BEZAFIBRATE]	Not Active
CC(C)n1c(/C=C/C(O)CC(O)CC(=O)O)c(-c2ccc(F)cc2)c2ccccc21 (stereo not given) [FLUVASTATIN]	Not Active

Test system: not listed separately
Test: DRUGMATRIX: beta-Lactamase enzyme inhibition (substrate: Nitrocefin)
Set-up: species or system Bacillus cereus
Settings: Not Active = under 50% inhibition at 10 µM

SMILES	IC50	Ki
CC1=Nc2ccc(Cl)cc2S(=O)(=O)N1 [DIAZOXIDE]	Not Active	Not Active
CC(C)(Oc1ccc(CCNC(=O)c2ccc(Cl)cc2)cc1)C(=O)O [BEZAFIBRATE]	Not Active	Not Active
CC(C)n1c(/C=C/C(O)CC(O)CC(=O)O)c(-c2ccc(F)cc2)c2ccccc21 (stereo not given) [FLUVASTATIN]	Not Active	Not Active

Biological target: Epidermal growth factor receptor (Homo sapiens, UniProt P00533)
Sequence (P00533 whole entry): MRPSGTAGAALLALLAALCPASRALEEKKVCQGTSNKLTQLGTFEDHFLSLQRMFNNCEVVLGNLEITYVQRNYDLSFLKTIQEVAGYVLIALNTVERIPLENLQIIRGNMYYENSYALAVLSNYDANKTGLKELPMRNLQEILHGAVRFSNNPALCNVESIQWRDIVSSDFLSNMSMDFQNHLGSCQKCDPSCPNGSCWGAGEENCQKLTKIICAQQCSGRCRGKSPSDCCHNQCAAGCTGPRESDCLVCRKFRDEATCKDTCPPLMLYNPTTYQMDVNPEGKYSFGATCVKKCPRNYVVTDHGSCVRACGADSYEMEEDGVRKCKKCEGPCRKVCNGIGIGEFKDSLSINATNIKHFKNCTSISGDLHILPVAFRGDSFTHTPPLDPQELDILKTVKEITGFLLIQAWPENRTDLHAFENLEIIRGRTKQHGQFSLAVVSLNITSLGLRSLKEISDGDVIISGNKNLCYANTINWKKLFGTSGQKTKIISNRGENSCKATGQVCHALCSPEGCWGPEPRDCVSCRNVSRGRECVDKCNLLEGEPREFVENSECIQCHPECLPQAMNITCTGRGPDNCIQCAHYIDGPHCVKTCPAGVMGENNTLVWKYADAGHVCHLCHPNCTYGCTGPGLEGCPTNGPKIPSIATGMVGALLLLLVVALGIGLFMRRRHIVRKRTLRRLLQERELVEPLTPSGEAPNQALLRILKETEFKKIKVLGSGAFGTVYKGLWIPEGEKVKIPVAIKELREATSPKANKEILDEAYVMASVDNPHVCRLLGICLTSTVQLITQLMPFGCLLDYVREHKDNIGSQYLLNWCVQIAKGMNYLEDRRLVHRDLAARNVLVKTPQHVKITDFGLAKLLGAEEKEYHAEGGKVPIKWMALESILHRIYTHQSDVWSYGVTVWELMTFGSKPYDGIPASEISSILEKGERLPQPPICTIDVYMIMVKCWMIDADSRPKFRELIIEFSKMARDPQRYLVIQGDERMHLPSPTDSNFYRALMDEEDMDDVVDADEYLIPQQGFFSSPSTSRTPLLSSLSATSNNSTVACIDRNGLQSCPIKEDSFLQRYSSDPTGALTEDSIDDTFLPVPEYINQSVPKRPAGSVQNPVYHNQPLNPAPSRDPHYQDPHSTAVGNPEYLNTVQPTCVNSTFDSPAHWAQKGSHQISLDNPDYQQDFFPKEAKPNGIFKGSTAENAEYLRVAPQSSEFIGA
Test: DRUGMATRIX: Protein Tyrosine Kinase, EGF Receptor enzyme inhibition (substrate: Poly(Glu:Tyr))
Type: cell-based, Insect cells
Settings: insect cells; Not Active = under 50% inhibition at 10 µM

SMILES	IC50
CC1=Nc2ccc(Cl)cc2S(=O)(=O)N1 [DIAZOXIDE]	Not Active
CC(C)(Oc1ccc(CCNC(=O)c2ccc(Cl)cc2)cc1)C(=O)O [BEZAFIBRATE]	Not Active
CC(C)n1c(/C=C/C(O)CC(O)CC(=O)O)c(-c2ccc(F)cc2)c2ccccc21 (stereo not given) [FLUVASTATIN]	Not Active

Test system: not listed separately
Test: DRUGMATRIX: Leukotriene, BLT (LTB4) radioligand binding (ligand: [3H]LTB4)
Type: cell membranes, Membrane
Settings: u-937; Not Active = under 50% inhibition at 10 µM

SMILES	IC50	Ki
CC1=Nc2ccc(Cl)cc2S(=O)(=O)N1 [DIAZOXIDE]	Not Active	Not Active
CC(C)(Oc1ccc(CCNC(=O)c2ccc(Cl)cc2)cc1)C(=O)O [BEZAFIBRATE]	Not Active	Not Active
CC(C)n1c(/C=C/C(O)CC(O)CC(=O)O)c(-c2ccc(F)cc2)c2ccccc21 (stereo not given) [FLUVASTATIN]	Not Active	Not Active

Biological target: 5-hydroxytryptamine receptor 1B (Rattus norvegicus, UniProt P28564); note: in other assays of this panel Not Active means under 50% inhibition at 10 µM
Sequence (P28564 whole entry): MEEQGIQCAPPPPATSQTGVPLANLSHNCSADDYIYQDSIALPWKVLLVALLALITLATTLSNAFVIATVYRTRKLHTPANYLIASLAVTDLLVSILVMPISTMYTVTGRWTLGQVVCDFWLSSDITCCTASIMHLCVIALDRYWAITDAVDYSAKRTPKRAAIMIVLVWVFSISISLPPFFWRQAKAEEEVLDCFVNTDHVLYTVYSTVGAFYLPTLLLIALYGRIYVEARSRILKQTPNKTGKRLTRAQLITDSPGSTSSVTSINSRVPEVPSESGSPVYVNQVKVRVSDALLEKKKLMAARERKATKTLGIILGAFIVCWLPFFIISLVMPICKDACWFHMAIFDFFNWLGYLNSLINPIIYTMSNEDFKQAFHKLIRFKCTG
Test: not given
Type: cell membranes, Wistar, Cerebral cortex, Membrane
Settings: not given

SMILES	IC50
CC1=Nc2ccc(Cl)cc2S(=O)(=O)N1 [DIAZOXIDE]	Not Active
CC(C)(Oc1ccc(CCNC(=O)c2ccc(Cl)cc2)cc1)C(=O)O [BEZAFIBRATE]	Not Active
CC(C)n1c(/C=C/C(O)CC(O)CC(=O)O)c(-c2ccc(F)cc2)c2ccccc21 (stereo not given) [FLUVASTATIN]	Not Active

Biological target: T3, 5-hydroxytryptamine receptor 2C (Homo sapiens, UniProt P28335)
T3 sequence (P28335 whole entry): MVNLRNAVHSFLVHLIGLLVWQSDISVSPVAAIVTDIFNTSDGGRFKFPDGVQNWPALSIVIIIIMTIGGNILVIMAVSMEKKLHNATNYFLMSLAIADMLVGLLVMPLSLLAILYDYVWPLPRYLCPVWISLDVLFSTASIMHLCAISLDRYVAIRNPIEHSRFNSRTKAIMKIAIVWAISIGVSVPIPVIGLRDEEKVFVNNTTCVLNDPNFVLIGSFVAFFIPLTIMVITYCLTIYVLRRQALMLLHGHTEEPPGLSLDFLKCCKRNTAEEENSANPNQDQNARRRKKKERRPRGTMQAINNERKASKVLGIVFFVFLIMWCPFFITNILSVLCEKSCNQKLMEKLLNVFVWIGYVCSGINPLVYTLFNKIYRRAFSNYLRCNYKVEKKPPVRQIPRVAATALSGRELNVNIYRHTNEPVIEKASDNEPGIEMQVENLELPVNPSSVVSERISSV
Test: DRUGMATRIX: Serotonin (5-Hydroxytryptamine) 5-HT2C radioligand binding (ligand: [3H] Mesulergine)
Type: cell membranes, CHO-K1, Membrane
Settings: cho-k1; Not Active = under 50% inhibition at 10 µM

SMILES	IC50
CC1=Nc2ccc(Cl)cc2S(=O)(=O)N1 [DIAZOXIDE]	Not Active
CC(C)(Oc1ccc(CCNC(=O)c2ccc(Cl)cc2)cc1)C(=O)O [BEZAFIBRATE]	Not Active
CC(C)n1c(/C=C/C(O)CC(O)CC(=O)O)c(-c2ccc(F)cc2)c2ccccc21 (stereo not given) [FLUVASTATIN]	Not Active

Biological target: Beta-1 adrenergic receptor (Homo sapiens, UniProt P08588)
Sequence (P08588 whole entry): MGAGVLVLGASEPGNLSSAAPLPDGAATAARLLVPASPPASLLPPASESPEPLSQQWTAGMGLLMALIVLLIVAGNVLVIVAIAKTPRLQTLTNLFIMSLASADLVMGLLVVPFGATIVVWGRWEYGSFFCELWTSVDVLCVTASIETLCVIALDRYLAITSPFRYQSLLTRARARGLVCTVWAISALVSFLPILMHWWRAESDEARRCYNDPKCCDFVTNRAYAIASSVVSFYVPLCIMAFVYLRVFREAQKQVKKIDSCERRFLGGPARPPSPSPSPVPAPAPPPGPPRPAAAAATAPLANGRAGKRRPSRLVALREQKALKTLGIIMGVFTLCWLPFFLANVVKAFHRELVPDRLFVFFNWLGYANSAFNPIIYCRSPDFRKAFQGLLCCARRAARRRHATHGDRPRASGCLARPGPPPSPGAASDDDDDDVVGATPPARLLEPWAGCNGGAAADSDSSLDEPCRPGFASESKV
Test: DRUGMATRIX: Adrenergic beta1 radioligand binding (ligand: [125I] Cyanopindolol)
Type: cell membranes, CHO-K1, Membrane
Settings: cho-k1; Not Active = under 50% inhibition at 10 µM

SMILES	IC50
CC1=Nc2ccc(Cl)cc2S(=O)(=O)N1 [DIAZOXIDE]	Not Active
CC(C)(Oc1ccc(CCNC(=O)c2ccc(Cl)cc2)cc1)C(=O)O [BEZAFIBRATE]	Not Active
CC(C)n1c(/C=C/C(O)CC(O)CC(=O)O)c(-c2ccc(F)cc2)c2ccccc21 (stereo not given) [FLUVASTATIN]	Not Active

Biological target: T4, Cathepsin G (Homo sapiens, UniProt P08311);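 note: inhibition of Cathepsin G enzyme activity, tested on an AMC-conjugated peptide substrate; in other assays of this panel Not Active means under 50% inhibition at 10 µM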
T4 sequence (P08311 whole entry): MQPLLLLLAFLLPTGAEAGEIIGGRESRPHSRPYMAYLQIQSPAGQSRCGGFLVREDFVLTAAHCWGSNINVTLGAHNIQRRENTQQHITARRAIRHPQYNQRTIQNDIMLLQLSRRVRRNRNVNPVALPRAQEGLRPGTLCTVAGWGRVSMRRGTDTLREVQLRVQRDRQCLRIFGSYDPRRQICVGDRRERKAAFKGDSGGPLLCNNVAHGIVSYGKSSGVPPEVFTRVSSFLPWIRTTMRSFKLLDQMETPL
Test: not given
Type: tissue-based
Settings: neutrophil

SMILES	IC50
CC1=Nc2ccc(Cl)cc2S(=O)(=O)N1 [DIAZOXIDE]	Not Active
CC(C)(Oc1ccc(CCNC(=O)c2ccc(Cl)cc2)cc1)C(=O)O [BEZAFIBRATE]	Not Active
CC(C)n1c(/C=C/C(O)CC(O)CC(=O)O)c(-c2ccc(F)cc2)c2ccccc21 (stereo not given) [FLUVASTATIN]	Not Active

Test system: not listed separately
Test: DRUGMATRIX: Sigma2 radioligand binding (ligand: [3H] Ifenprodil)
Type: cell membranes, Rattus norvegicus, Wistar, Brain, Membrane
Settings: Not Active = under 50% inhibition at 10 µM

SMILES	IC50	Ki
CC1=Nc2ccc(Cl)cc2S(=O)(=O)N1 [DIAZOXIDE]	Not Active	Not Active
CC(C)(Oc1ccc(CCNC(=O)c2ccc(Cl)cc2)cc1)C(=O)O [BEZAFIBRATE]	Not Active	Not Active
CC(C)n1c(/C=C/C(O)CC(O)CC(=O)O)c(-c2ccc(F)cc2)c2ccccc21 (stereo not given) [FLUVASTATIN]	Not Active	Not Active

Test system: not listed separately
Test: DRUGMATRIX: Purinergic P2X radioligand binding (ligand: [3H] alpha, beta-Methylene-ATP)
Type: cell membranes, Oryctolagus cuniculus, New Zealand albino, Urinary bladder, Membrane
Settings: Not Active = under 50% inhibition at 10 µM

SMILES	IC50	Ki
CC1=Nc2ccc(Cl)cc2S(=O)(=O)N1 [DIAZOXIDE]	Not Active	Not Active
CC(C)(Oc1ccc(CCNC(=O)c2ccc(Cl)cc2)cc1)C(=O)O [BEZAFIBRATE]	Not Active	Not Active
CC(C)n1c(/C=C/C(O)CC(O)CC(=O)O)c(-c2ccc(F)cc2)c2ccccc21 (stereo not given) [FLUVASTATIN]	Not Active	Not Active

Biological target: T5, Cysteinyl leukotriene receptor 1 (Homo sapiens, UniProt Q9Y271); note: in other assays of this panel Not Active means under 50% inhibition at 10 µM
T5 sequence (Q9Y271 whole entry): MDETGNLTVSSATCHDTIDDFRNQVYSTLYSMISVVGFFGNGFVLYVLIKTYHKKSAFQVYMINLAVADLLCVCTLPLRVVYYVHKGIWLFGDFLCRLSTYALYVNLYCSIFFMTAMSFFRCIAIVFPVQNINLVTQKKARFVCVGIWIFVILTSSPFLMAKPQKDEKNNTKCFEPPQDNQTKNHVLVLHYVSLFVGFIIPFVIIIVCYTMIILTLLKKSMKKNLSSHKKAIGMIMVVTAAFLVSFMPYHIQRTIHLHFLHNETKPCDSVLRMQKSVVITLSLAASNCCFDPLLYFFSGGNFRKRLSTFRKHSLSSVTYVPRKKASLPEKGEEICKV
Test: not given
Type: cell membranes, CHO-K1, Membrane
Settings: cho-k1

SMILES	IC50
CC1=Nc2ccc(Cl)cc2S(=O)(=O)N1 [DIAZOXIDE]	Not Active
CC(C)(Oc1ccc(CCNC(=O)c2ccc(Cl)cc2)cc1)C(=O)O [BEZAFIBRATE]	Not Active
CC(C)n1c(/C=C/C(O)CC(O)CC(=O)O)c(-c2ccc(F)cc2)c2ccccc21 (stereo not given) [FLUVASTATIN]	Not Active

Biological target: Melanocortin receptor 4 (Homo sapiens, UniProt P32245); note: in other assays of this panel Not Active means under 50% inhibition at 10 µM
Sequence (P32245 whole entry): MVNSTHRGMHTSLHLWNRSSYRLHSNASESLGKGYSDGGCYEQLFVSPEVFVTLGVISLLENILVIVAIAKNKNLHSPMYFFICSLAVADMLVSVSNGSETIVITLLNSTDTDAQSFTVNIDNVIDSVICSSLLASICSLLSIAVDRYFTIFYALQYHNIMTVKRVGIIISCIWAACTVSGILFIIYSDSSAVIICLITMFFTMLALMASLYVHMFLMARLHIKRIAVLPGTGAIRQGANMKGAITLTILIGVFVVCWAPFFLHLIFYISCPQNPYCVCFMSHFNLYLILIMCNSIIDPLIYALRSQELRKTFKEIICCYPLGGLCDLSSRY
Test: not given
Type: cell membranes, Membrane
Settings: hek293

SMILES	IC50
CC1=Nc2ccc(Cl)cc2S(=O)(=O)N1 [DIAZOXIDE]	Not Active
CC(C)(Oc1ccc(CCNC(=O)c2ccc(Cl)cc2)cc1)C(=O)O [BEZAFIBRATE]	Not Active
CC(C)n1c(/C=C/C(O)CC(O)CC(=O)O)c(-c2ccc(F)cc2)c2ccccc21 (stereo not given) [FLUVASTATIN]	Not Active

Biological target: Tyrosine-protein kinase Fyn (Homo sapiens, UniProt P06241)
Sequence (P06241 whole entry): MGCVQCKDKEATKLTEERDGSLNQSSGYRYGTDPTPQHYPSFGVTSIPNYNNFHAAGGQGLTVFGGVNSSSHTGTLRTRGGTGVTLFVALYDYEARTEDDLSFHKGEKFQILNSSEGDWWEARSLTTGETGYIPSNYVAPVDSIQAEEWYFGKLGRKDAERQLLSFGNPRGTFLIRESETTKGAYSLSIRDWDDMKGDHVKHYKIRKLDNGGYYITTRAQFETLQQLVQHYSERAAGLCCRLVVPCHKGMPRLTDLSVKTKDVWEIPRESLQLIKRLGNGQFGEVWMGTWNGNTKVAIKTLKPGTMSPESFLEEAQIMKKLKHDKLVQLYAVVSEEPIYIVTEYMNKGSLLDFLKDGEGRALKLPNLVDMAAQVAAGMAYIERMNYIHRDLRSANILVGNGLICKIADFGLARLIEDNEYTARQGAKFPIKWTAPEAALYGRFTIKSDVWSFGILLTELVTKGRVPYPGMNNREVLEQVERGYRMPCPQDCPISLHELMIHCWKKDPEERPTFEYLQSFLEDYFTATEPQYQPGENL
Test: biochemical
Type: cell-based, Insect cells
Settings: insect cells

SMILES	IC50
CC1=Nc2ccc(Cl)cc2S(=O)(=O)N1 [DIAZOXIDE]	Not Active
CC(C)(Oc1ccc(CCNC(=O)c2ccc(Cl)cc2)cc1)C(=O)O [BEZAFIBRATE]	Not Active
CC(C)n1c(/C=C/C(O)CC(O)CC(=O)O)c(-c2ccc(F)cc2)c2ccccc21 (stereo not given) [FLUVASTATIN]	Not Active

Biological target: Melanocortin receptor 5 (Homo sapiens, UniProt P33032); note: in other assays of this panel Not Active means under 50% inhibition at 10 µM
Sequence (P33032 whole entry): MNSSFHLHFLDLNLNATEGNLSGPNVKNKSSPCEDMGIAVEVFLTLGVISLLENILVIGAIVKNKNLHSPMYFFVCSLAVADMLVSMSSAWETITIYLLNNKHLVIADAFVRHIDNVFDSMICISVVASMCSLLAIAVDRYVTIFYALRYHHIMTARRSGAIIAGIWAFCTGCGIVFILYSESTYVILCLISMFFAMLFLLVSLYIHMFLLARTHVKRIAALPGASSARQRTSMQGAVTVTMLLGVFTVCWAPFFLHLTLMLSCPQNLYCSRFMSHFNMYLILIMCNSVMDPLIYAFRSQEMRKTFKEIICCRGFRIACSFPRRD
Test: not given
Type: cell membranes, HEK293, Membrane
Settings: hek293

SMILES	IC50
CC1=Nc2ccc(Cl)cc2S(=O)(=O)N1 [DIAZOXIDE]	Not Active
CC(C)(Oc1ccc(CCNC(=O)c2ccc(Cl)cc2)cc1)C(=O)O [BEZAFIBRATE]	Not Active
CC(C)n1c(/C=C/C(O)CC(O)CC(=O)O)c(-c2ccc(F)cc2)c2ccccc21 (stereo not given) [FLUVASTATIN]	Not Active

Biological target: Mu-type opioid receptor (Homo sapiens, UniProt P35372)
Sequence (P35372 whole entry): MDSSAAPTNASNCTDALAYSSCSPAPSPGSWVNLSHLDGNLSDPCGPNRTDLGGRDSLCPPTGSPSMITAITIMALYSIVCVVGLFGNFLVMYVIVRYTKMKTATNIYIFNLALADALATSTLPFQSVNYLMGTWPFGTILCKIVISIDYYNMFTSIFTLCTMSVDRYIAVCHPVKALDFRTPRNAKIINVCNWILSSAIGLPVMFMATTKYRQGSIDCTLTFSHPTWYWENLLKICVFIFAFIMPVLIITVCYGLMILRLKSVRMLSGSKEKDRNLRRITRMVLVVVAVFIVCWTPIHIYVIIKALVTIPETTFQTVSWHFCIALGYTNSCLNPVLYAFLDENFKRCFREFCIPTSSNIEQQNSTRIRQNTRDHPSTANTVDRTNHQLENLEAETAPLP
Test: DRUGMATRIX: Opiate mu (OP3, MOP) radioligand binding (ligand: [3H] Diprenorphine)
Type: cell membranes, CHO-K1, Membrane
Settings: cho-k1; Not Active = under 50% inhibition at 10 µM

SMILES	IC50
CC1=Nc2ccc(Cl)cc2S(=O)(=O)N1 [DIAZOXIDE]	Not Active
CC(C)(Oc1ccc(CCNC(=O)c2ccc(Cl)cc2)cc1)C(=O)O [BEZAFIBRATE]	Not Active
CC(C)n1c(/C=C/C(O)CC(O)CC(=O)O)c(-c2ccc(F)cc2)c2ccccc21 (stereo not given) [FLUVASTATIN]	Not Active
